Values quoted from earlier work as cited in patent US20220273628A1, “EFFECTS OF LYSERGIC ACID DIETHYLAMIDE (LSD) AND OF LSD ANALOGS TO ASSIST PSY[…] G[…] DISORDER OR OTHER ANXIETY NOT RELATED TO LIFE-T[…]” (Universitätsspital Basel, priority 2021, published 2022).

Columns and labels:
5-HT2A receptor = 5-HT2A receptor (Homo sapiens, UniProt P28223); conditions: cited from earlier work
[1] = test system: patients with treatment-resistant depression; conditions: 12 patients, cited from earlier work

Chain of 5-HT2A receptor (P28223 whole entry): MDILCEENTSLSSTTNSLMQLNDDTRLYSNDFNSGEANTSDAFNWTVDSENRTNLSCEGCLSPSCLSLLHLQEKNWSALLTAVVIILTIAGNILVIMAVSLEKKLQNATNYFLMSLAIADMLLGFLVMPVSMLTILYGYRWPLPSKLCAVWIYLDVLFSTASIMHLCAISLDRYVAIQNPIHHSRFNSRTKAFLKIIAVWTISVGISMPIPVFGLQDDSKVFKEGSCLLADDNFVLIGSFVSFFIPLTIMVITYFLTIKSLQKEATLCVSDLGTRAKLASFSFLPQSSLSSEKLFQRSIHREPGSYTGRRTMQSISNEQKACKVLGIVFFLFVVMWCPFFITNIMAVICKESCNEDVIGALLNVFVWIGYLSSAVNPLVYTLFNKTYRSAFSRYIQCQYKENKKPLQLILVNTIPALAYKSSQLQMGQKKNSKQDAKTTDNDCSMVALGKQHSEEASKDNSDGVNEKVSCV

Compound | activity at the 5-HT2A receptor (5-HT2A receptor) | transient anxiety during drug onset ([1]; 10 mg and 25 mg) | mild and transient nausea [1] | transient confusion or thought disorder [1] | transient headache [1]
CN(C)CCc1c[nH]c2ccccc12 [DMT, N,N-dimethyltryptamine] | agonists | – | – | – | –
COc1cc(CCN)cc(OC)c1OC [mescaline] | agonists | – | – | – | –
CN(C)CCc1c[nH]c2cccc(OP(=O)(O)O)c12 [psilocybin] | – | all patients | four | nine | four
